# Where “and” joins values, the source holds several entries; their conditions need not be identical. Equal values may be shown once. Read-outs that look alike come from different tables or passages of the source.
# Assays:
# [1] = test system: Vesicular Stomatitis Virus (VSV) pseudotyped with EBOV glycoprotein; assay: microbe, parasite or virus in culture; format: cell-based, Ebola virus; settings: HeLa, read-out: IC50, inhibition of EBOV-VSV pseudovirus entry
# [2] = test system: Marburg virus (MARV), Musoke strain; assay: organism not typed; format: cell-based; settings: HeLa; n=6; read-out: IC50 ± SEM versus MARV Musoke strain
# [3] = test system: Ebola virus/H.sapiens-tc/COD/1995/Kikwit-9510621 (EBOV/Kik); assay: microbe, parasite or virus in culture; format: cell-based; settings: Zaire ebolavirus, HeLa
# [4] = test system: Ebola virus/H.sapiens-tc/GIN/2014/Makona-005 (EBOV/Mak); assay: microbe, parasite or virus in culture; format: cell-based; settings: Zaire ebolavirus, HeLa
# [5] = test system: Ebola virus/H.sapiens-tc/COD/1976/Yambuku-Mayinga (EBOV/May); assay: microbe, parasite or virus in culture; format: cell-based; settings: Zaire ebolavirus, HeLa
# [6] = test system: Marburg virus/H.sapiens-tc/AGO/2005/Ang-1379v (MARV/Ang); assay: organism not typed; format: cell-based; settings: HeLa
# [7] = test system: Marburg virus/H.sapiens-tc/KEN/1980/Mt. Elgon-Musoke (MARV/Mus); assay: organism not typed; format: cell-based; settings: HeLa
# Chikungunya virus = assay: microbe, parasite or virus in culture; format: cell-based; settings: Vero 76
# Ebola virus = assay: microbe, parasite or virus in culture; format: cell-based; settings: Zaire ebolavirus, Vero 76
# [8] = test system: Venezuelian equine encephalitis virus; assay: microbe, parasite or virus in culture; format: cell-based; settings: Venezuelan equine encephalitis virus, Vero 76
# EBOV Zaire = assay: microbe, parasite or virus in culture; format: cell-based, Ebola virus; settings: Zaire ebolavirus, HeLa
# SARS-CoV-2 = assay: microbe, parasite or virus in culture; format: cell-based
# [9] = test system: murine hepatitis virus (MHV); assay: microbe, parasite or virus in culture; format: cell-based; settings: Murine coronavirus, read-out: IC50 versus murine hepatitis virus (MHV)
# SARS-CoV-2 Spike RBD = SARS-CoV-2 Spike RBD (Severe acute respiratory syndrome coronavirus 2, UniProt P0DTC2); format: binding
# HeLa cells = settings: human
# [10] = mouse, microsomes
# [11] = guinea pig, microsomes
# [12] = microsomes; for t1/2: monkey
# [13] = human, microsomes
# [14] = mouse, microsomes, 1 h, pH 7.4
# [15] = guinea pig, pH 7.4
# [16] = human, microsomes, 1 h, pH 7.4
# in vitro [17] = settings: African green monkey
# in vitro [18] = settings: human
# Influenza A virus H1N1 = assay: microbe, parasite or virus in culture; format: cell-based; settings: H1N1, MDCK
# MERS coronavirus = assay: microbe, parasite or virus in culture; format: cell-based; settings: Middle East respiratory syndrome-related coronavirus, Vero 76
# Poliovirus 3 = assay: microbe, parasite or virus in culture; format: cell-based; settings: Enterovirus C, Vero 76
# Tacaribe virus = assay: microbe, parasite or virus in culture; format: cell-based; settings: Mammarenavirus tacaribeense, Vero 76
# Yellow Fever virus = assay: microbe, parasite or virus in culture; format: cell-based; settings: Vero 76
# Hartley guinea pigs = settings: guinea pig, in vivo
# [19] = Hartley, guinea pig, in vivo, po, 30 mg/kg
# Vero 76 = settings: African green monkey
# in vivo [20] = settings: both, Hartley, guinea pig, po
# in vivo [21] = settings: Hartley, guinea pig, po; for AUC(0-t): AUClast Mean; for Cmax: Cmax Mean; for half-life: T1/2
# in vitro [22] = settings: dog
# [23] = Severe acute respiratory syndrome coronavirus 2, A549-ACE2, read-out: IC50 against SARS-CoV-2
# [24] = read-out: IC50 against SARS-CoV-2
smiles,measurement,setting,value
CCN(CC)CCCC(C)Nc1c2ccc(Cl)cc2nc2ccc(OC)cc12 (centres unmarked) [Quinacrine],IC50,[1],970 nM
same,IC50,[2],775 ± 283 nM
same,IC50,[3],1410 ± 250 nM
same,IC50,[4],1050 ± 260 nM
same,IC50,[5],1480 ± 650 nM
same,IC50,[6],2940 ± 760 nM
same,IC50,[7],1570 ± 170 nM
same,EC50,Chikungunya virus,3200 nM
same,EC50,Ebola virus,> 12300 nM
same,EC50,[8],4000 nM
same,EC50,EBOV Zaire,350 nM
same,IC50,SARS-CoV-2; [23],< 200 nM
same,IC50,SARS-CoV-2; [24],~122 nM
same,IC50,[9],2300 nM
same,binding to SARS-CoV-2 Spike RBD,SARS-CoV-2 Spike RBD,did not demonstrate reproducible binding
same,CC50,HeLa cells,8620 ± 20 nM
same,Clint,[10],110.0
same,"Dextromethorphan: compound, t1/2 normalized to dextromethorphan control",[10],0.8
same,t1/2,[10],0.21 h
same,Clint,[11],81.3
same,"Dextromethorphan: compound, t1/2 normalized to dextromethorphan control",[11],5.4
same,t1/2,[11],0.285 h
same,Clint,[12],137.4
same,"Dextromethorphan: compound, t1/2 normalized to dextromethorphan control",[12],1
same,t1/2,[12],0.168 h
same,Clint,[13],50.5
same,"Dextromethorphan: compound, t1/2 normalized to dextromethorphan control",[13],1.4
same,t1/2,[13],0.458 h
same,Relative Peak Area/Abundance MLM,[14],32.0%
same,Relative Peak Area/Abundance GPLM,[15],20.7%
same,Relative Peak Area/Abundance HLM,[16],32.3%
same,CC50,in vitro [17],15000 nM
same,CC50,in vitro [18],6200 nM
CCN(CC)CCOc1ccc2c(c1)C(=O)c1cc(OCCN(CC)CC)ccc1-2 [Tilorone],IC50,[1],5000 nM
same,IC50,[2],1940 ± 304 nM
same,IC50,[3],1480 ± 470 nM
same,IC50,[4],1140 ± 380 nM
same,IC50,[5],1210 ± 1070 nM
same,IC50,[6],4510 ± 1930 nM
same,IC50,[7],2050 ± 280 nM
same,EC50,Chikungunya virus,4200 nM
same,EC50,Ebola virus,> 11000 nM
same,EC50,Influenza A virus H1N1,> 19000 nM
same,EC50,MERS coronavirus,3700 nM
same,EC50,Poliovirus 3,> 25000 nM
same,EC50,Tacaribe virus,29000 nM
same,EC50,[8],18000 nM
same,EC50,Yellow Fever virus,> 12000 nM
same,EC50,EBOV Zaire,230 nM
same,IC50,SARS-CoV-2; [23],< 200 nM
same,IC50,SARS-CoV-2; [24],~180 nM and 180 nM
same,IC50,[9],~20000 nM
same,Kd,SARS-CoV-2 Spike RBD; pH5.2,631 nM
same,Kd,SARS-CoV-2 Spike RBD; pH 7.4,339 nM
same,CC50,HeLa cells,18000 ± 3040 nM
same,Clint,[10],13.5
same,"Dextromethorphan: compound, t1/2 normalized to dextromethorphan control",[10],6.3
same,t1/2,[10],1.712 h
same,Clint,[11],113.7
same,"Dextromethorphan: compound, t1/2 normalized to dextromethorphan control",[11],3.9
same,t1/2,[11],0.203 h
same,Clint,[12],14.7
same,"Dextromethorphan: compound, t1/2 normalized to dextromethorphan control",[12],16.9
same,t1/2,[12],1.57 h
same,Clint,[13],10.9
same,"Dextromethorphan: compound, t1/2 normalized to dextromethorphan control",[13],6.5
same,t1/2,[13],2.118 h
same,Relative Peak Area/Abundance MLM,[14],62.9%
same,Relative Peak Area/Abundance GPLM,[15],35.5%
same,Relative Peak Area/Abundance HLM,[16],54.9%
same,tolerability,Hartley guinea pigs,relatively well tolerated
same,mortality and morbidity,"Hartley guinea pigs; po, 100 mg/kg",significant mortality and morbidity
same,AUClast Mean,[19]; female,1340 ng·h/mL
same,AUClast Mean,[19]; male,1230 ng·h/mL
same,T1/2,[19]; male,13.3 h
same,CC50,Vero 76,32000 nM
same,MTD,in vivo [20],30 mg/kg
same,AUC(0-t),"in vivo [21]; female, 30 mg/kg",1140 ng·h/mL
same,Cmax,"in vivo [21]; female, 30 mg/kg",246 ng/mL
same,half-life,"in vivo [21]; female, 30 mg/kg",14.3 h
same,Tmax,"in vivo [21]; female, 30 mg/kg",0.5 h
same,AUC(0-t),"in vivo [21]; female, 100 mg/kg",3330 ng·h/mL
same,Cmax,"in vivo [21]; female, 100 mg/kg",384 ng/mL
same,half-life,"in vivo [21]; female, 100 mg/kg",17.4 h
same,Tmax,"in vivo [21]; female, 100 mg/kg",1 h
same,AUC(0-t),"in vivo [21]; female, 200 mg/kg",4680 ng·h/mL
same,Cmax,"in vivo [21]; female, 200 mg/kg",448 ng/mL
same,Tmax,"in vivo [21]; female, 200 mg/kg",1 h
same,AUC(0-t),"in vivo [21]; male, 30 mg/kg",1020 ng·h/mL
same,Cmax,"in vivo [21]; male, 30 mg/kg",148 ng/mL
same,half-life,"in vivo [21]; male, 30 mg/kg",15.6 h
same,Tmax,"in vivo [21]; male, 30 mg/kg",1 h
same,AUC(0-t),"in vivo [21]; male, 100 mg/kg",2690 ng·h/mL
same,Cmax,"in vivo [21]; male, 100 mg/kg",225 ng/mL
same,Tmax,"in vivo [21]; male, 100 mg/kg",1 h
same,AUC(0-t),"in vivo [21]; male, 200 mg/kg",5750 ng·h/mL
same,Cmax,"in vivo [21]; male, 200 mg/kg",355 ng/mL
same,half-life,"in vivo [21]; male, 200 mg/kg",29 h
same,Tmax,"in vivo [21]; male, 200 mg/kg",1 h
same,CC50,in vitro [22],19000 nM
same,CC50,in vitro [18],6500 nM

# From patent US11696914B1 (priority 2019, dated 2023)
